pIC50: −log10 of the molar value. In brackets after ≈: the same amount, converted by molar mass.
What was measured:
[1] = system: Murine macrophage J774.A1; assay: cells; assay type: cell-based; details: Mus musculus, cytotoxicity, resazurin, exposure 24 and 72 h, which one not given
[2] = system: Citrobacter freundii ATCC 8030 T; assay: microbe, parasite or virus in culture; assay type: cell-based; details: ATCC8030
[3] = system: Mtb CF 81 (Pre-XDR); assay type: cell-based, Mycobacterium tuberculosis; details: Pre-XDR clinical isolate; REMA, 7 days
[4] = system: Enterobacter cloacae subsp. cloacae ATCC 13883 T; assay: microbe, parasite or virus in culture; assay type: cell-based; details: ATCC13883
[5] = system: Mtb CF 165 (MDR); assay type: cell-based, Mycobacterium tuberculosis; details: MDR clinical isolate; REMA, 7 days
[6] = system: Klebsiella oxytoca CCT 0182; assay: microbe, parasite or virus in culture; assay type: cell-based; details: CCT0182
[7] = system: Enterobacter aerogenes ATCC 13048 T; assay: microbe, parasite or virus in culture; assay type: cell-based; details: Klebsiella aerogenes, ATCC13048
[8] = system: Klebsiella pneumoniae subsp. pneumoniae ATCC 13883 T; assay: microbe, parasite or virus in culture; assay type: cell-based; details: ATCC13883
[9] = system: Enterococcus faecium NCTC 7171 T; assay: microbe, parasite or virus in culture; assay type: cell-based; details: NCTC7171
[10] = system: Mtb CF 171 (MDR); assay type: cell-based, Mycobacterium tuberculosis; details: MDR clinical isolate; REMA, 7 days
[11] = system: Mtb H37Rv; assay: Checkerboard assay of Bfx with RFP; assay type: cell-based, Mycobacterium tuberculosis
Experimental: To evaluate the interaction between Bfx and RFP, a checkerboard assay was conducted following the methodology proposed by Berenbaum ([Berenbaum, 1978]).Test compounds were serially diluted in Middlebrook 7H9 broth and arranged in a 96-well plate, starting with 2x MIC for each compound. RFP was also diluted horizontally based on its MIC90. The combinations of different concentrations of Bfx and RFP were incubated with Mtb (5 × 10⁵ CFU/mL) at 37°C and 5% CO₂ for 7 days. Post-incubation, 0.01% resazurin was added, and fluorescence readings were taken after 24 h to determine the Fractional Inhibitory Concentration Index (FICI). The combined effects of the compound combinations were classified according to the Fractional Inhibitory Concentration Index (FICI):
FICI=MICofdrug1incombination/MICofdrug1+MICofdrug2incombination/MICofdrug1

[12] = system: Enterococcus faecalis ATCC 29212; assay: microbe, parasite or virus in culture; assay type: cell-based; details: ATCC29212
[13] = system: Mtb H37Rv; assay: microbe, parasite or virus in culture; assay type: cell-based, Mycobacterium tuberculosis; details: Mycobacterium tuberculosis, H37RV; Table 3
[14] = system: Staphylococcus epidermidis ATCC 14990 T; assay: microbe, parasite or virus in culture; assay type: cell-based; details: ATCC14990
[15] = system: Staphylococcus saprophyticus subsp. saprophyticus ATCC 15305; assay: microbe, parasite or virus in culture; assay type: cell-based; details: ATCC15305
[16] = system: Mtb CF 61 (MDR); assay type: cell-based, Mycobacterium tuberculosis; details: MDR clinical isolate; REMA, 7 days
[17] = system: Mtb H37Rv; assay: In vivo infection and treatment, BALB/c mice; details: daily oral 4 weeks, 5n 200 mg/kg, RFP 15 mg/kg
[18] = system: MRC-5 fibroblasts; assay: cells; assay type: cell-based; details: Homo sapiens, MRC5; cytotoxicity, resazurin; exposure 24 and 72 h, which one not given
[19] = system: M. smegmatis; assay type: cell-based, Mycobacterium smegmatis; details: Sensitive; REMA, 2 days
[20] = system: intracellular Mtb H37Rv in J774.A1 macrophages; assay: Intracellular antimycobacterial activity in infected macrophages; assay type: cell-based, Mycobacterium tuberculosis; details: 10x MIC, 72 h, CFU count
Experimental: Murine macrophage J774.A1 cells (1 × 10^6 cells/mL) were seeded in 24-well plates and incubated as previously described. After 24 h, the supernatant was discarded, and 1 mL of Mtb inoculum (2 × 10^6 CFU/mL) was added to the wells. The plate was incubated for 2 h to facilitate infection. Subsequently, the supernatant was removed, and the cells were washed with PBS. An amikacin solution (200 μg/mL) was added to ensure the sterility of the extracellular environment. After 2 h, the wells were washed, and treatments were applied (1x, 5x, and 10x MIC90 of Bfx or RFP). The cultures were then incubated for 72 h. After incubation, the cells were lysed using a Triton solution, and the supernatant was collected, serially diluted, and plated on Middlebrook 7H11 medium supplemented with 10% OADC. These plates were incubated for 20–30 days until colony-forming units (CFU) were counted ([Solcia et al., 2021]).

[21] = system: Proteus mirabilis ATCC 29906 T; assay: microbe, parasite or virus in culture; assay type: cell-based; details: ATCC29906
[22] = system: Gram-negative, Gram-positive bacteria, and fungi, including Candida albicans; assay: microbe, parasite or virus in culture; assay type: cell-based; details: all the bacterial and fungal strains tested (Table 2), read-out: MIC90 for all species analyzed
[23] = system: M. bovis; assay type: cell-based, Mycobacterium bovis; details: Sensitive; REMA, 7 days
[24] = system: Mtb CF 105 (MDR); assay type: cell-based, Mycobacterium tuberculosis; details: MDR clinical isolate; REMA, 7 days
[25] = system: Candida albicans ATCC 90028; assay: microbe, parasite or virus in culture; assay type: cell-based; details: ATCC90028, Sabouraud broth, 48 h
[26] = system: Mtb CF 162 (MDR); assay type: cell-based, Mycobacterium tuberculosis; details: MDR clinical isolate; REMA, 7 days
[27] = system: Mtb CF 48 (MDR); assay type: cell-based, Mycobacterium tuberculosis; details: MDR clinical isolate; REMA, 7 days

Q: How did the pIC50 [1] turn out when `O=C(Nc1ccc(N2CCN(c3ccccn3)CC2)c(F)c1)c1ccc2no[n+]([O-])c2c1` [Compound 5n] was run?
A: Its pIC50 is less than 3.64.

Q: And the MIC90 [2]?
A: The MIC90 was greater than 200 µM.

Q: What about the “CIM90 CF 81” value [3] of the same compound?
A: Its value is 1,68 ± 1,32 μM.

Q: What about the MIC90 [4] of the same compound?
A: Its MIC90 is greater than 200 µM.

Q: And the “CIM90 CF 165” value [5]?
A: The value was 1,84 ± 1,73 μM.

Q: And the MIC90 [6]?
A: The MIC90 was greater than 200 µM.

Q: What about the MIC90 [7] of the same compound?
A: The MIC90 was greater than 200 µM.

Q: And the MIC90 [8]?
A: The MIC90 was greater than 200 µM.

Q: What about the MIC90 [9] of the same compound?
A: The MIC90 was greater than 200 µM.

Q: And the “CIM90 CF 171” value [10]?
A: The value was 0,26 ± 0,05 μM.

Q: And the “Results (interaction with RFP)” value ([11]; Bfx combined with RFP)?
A: Its value is “Synergistic (FICI values less than 0.5 indicate synergy)”.

Q: And the MIC90 ([11]; Mycobacterium tuberculosis, H37RV, compound alone, Table S1)?
A: The MIC90 was 0.09 µM.

Q: And the MIC90 combined ([11]; in the combination 5n + RFP)?
A: Its MIC90 combined is 0,00578 µM.

Q: And the MIC90 [12]?
A: The MIC90 was greater than 200 µM.

Q: What about the MIC90 [13] of the same compound?
A: Its MIC90 is 0.09 µM (≈ 0.0391 µg/mL).

Q: And the MIC90 [14]?
A: The MIC90 was greater than 200 µM.

Q: And the MIC90 [15]?
A: The MIC90 was greater than 200 µM.

Q: What about the “CIM90 CF 61” value [16] of the same compound?
A: Its value is 0,56 ± 0,47 μM.

Q: And the “reduction of the pulmonary load” value ([17]; abstract)?
A: Its value is 3.0 log10 CFU/mL.

Q: What about the “reduction of bacterial load in the lungs” value ([17]; intranasal infection, 5b) of the same compound?
A: Its value is 3.0 log10.

Q: And the pIC50 [18]?
A: Its pIC50 is less than 3.65.

Q: And the “CIM90 M. smegmatis” value [19]?
A: Its value is 41,07 ± 10,05 μM.

Q: What about the “inhibition of bacterial load within macrophages” value [20] of the same compound?
A: Its value is 0.9 log10.

Q: And the MIC90 [21]?
A: Its MIC90 is greater than 200 µM.

Q: And the MIC90 [22]?
A: Its MIC90 is greater than 200 µM.

Q: What about the “CIM90 M. bovis” value [23] of the same compound?
A: Its value is 27,03 ± 10,43 μM.

Q: And the “CIM90 CF 105” value [24]?
A: Its value is > 57,26 μM.

Q: And the MIC90 [25]?
A: The MIC90 was greater than 200 µM.

Q: And the “CIM90 CF 162” value [26]?
A: The value was 2,24 ± 1,47 μM.

Q: And the “CIM90 CF 48” value [27]?
A: Its value is 22.38 ± 9.37 µM.

From article PMC11502347 (Frontiers in Microbiology, 2024)
